Common to all, as to experiment: relative viability (nuclei count vs DMSO), 5 days (fraction); higher = more cells survive
Compound in the assay “Pictilisib + Bortezomib”: CS(=O)(=O)N1CCN(Cc2cc3nc(-c4cccc5[nH]ncc45)nc(N4CCOCC4)c3s2)CC1 [Pictilisib] + CC(C)C[C@H](NC(=O)[C@H](Cc1ccccc1)NC(=O)c1cnccn1)B(O)O [Bortezomib] (partner 0.002 µM)
In short, it runs like this:
(§1)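 Lung cancer cell lines in 1536-well plates were dosed by pin tool the day after seeding, either with one drug alone or with a fixed anchor-drug dose plus five library-drug doses (not always all listed) in √10 steps. After 5 days, cells were fixed and their nuclei stained in one step (final 0.05% Triton X-100, 1% formaldehyde, 1 ug/ml Hoechst), then counted on 4× images. Relative viability is the nuclei count in treated wells divided by that in vehicle wells. Values are medians of duplicate plates.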

Compound in the assay “Pictilisib + Palbociclib”: CS(=O)(=O)N1CCN(Cc2cc3nc(-c4cccc5[nH]ncc45)nc(N4CCOCC4)c3s2)CC1 [Pictilisib] + CC(=O)c1c(C)c2cnc(Nc3ccc(N4CCNCC4)cn3)nc2n(C2CCCC2)c1=O [Palbociclib] (partner 0.5 µM)
In short, it runs like this:
as §1

Compound in the assay “Pictilisib + Luminespib”: CS(=O)(=O)N1CCN(Cc2cc3nc(-c4cccc5[nH]ncc45)nc(N4CCOCC4)c3s2)CC1 [Pictilisib] + CCNC(=O)c1noc(-c2cc(C(C)C)c(O)cc2O)c1-c1ccc(CN2CCOCC2)cc1 [Luminespib] (partner 0.01 µM)
In short, it runs like this: as §1

Compound in the assay “MK-2206 + Tozasertib”: NC1(c2ccc(-c3nc4ccn5c(=O)[nH]nc5c4cc3-c3ccccc3)cc2)CCC1 [MK-2206] + Cc1cc(Nc2cc(N3CCN(C)CC3)nc(Sc3ccc(NC(=O)C4CC4)cc3)n2)n[nH]1 [Tozasertib] (partner 0.1 µM)
In short, it runs like this: as §1

Compound in the assay “Pictilisib + AZD7762”: CS(=O)(=O)N1CCN(Cc2cc3nc(-c4cccc5[nH]ncc45)nc(N4CCOCC4)c3s2)CC1 [Pictilisib] + NC(=O)Nc1cc(-c2cccc(F)c2)sc1C(=O)N[C@H]1CCCNC1 [AZD7762] (partner 0.2 µM)
In short, it runs like this: as §1

We go through seven cell lines from the supplement of paper PMC10307832.

For the cell line NCI-H1734, the relative viability came to 0.995 with Pictilisib + Bortezomib (first compound 0.02 µM); 0.903 with Pictilisib + Bortezomib (first compound 0.06325 µM); 0.585 in the assay with Pictilisib + Bortezomib (first compound 0.6325 µM); 0.335 with Pictilisib + Bortezomib (first compound 2 µM); 0.303 in the assay with Pictilisib + Palbociclib (first compound 0.02 µM); 0.338 with Pictilisib + Palbociclib (first compound 0.06325 µM). In addition, the relative viability worked out at 0.281 with Pictilisib + Palbociclib (first compound 0.6325 µM); 0.192 with Pictilisib + Palbociclib (first compound 2 µM); 0.174 with Pictilisib + Luminespib (first compound 0.02 µM); 0.179 with Pictilisib + Luminespib (first compound 0.06325 µM); 0.164 in the assay with Pictilisib + Luminespib (first compound 0.6325 µM); 0.171 with Pictilisib + Luminespib (first compound 2 µM). Further, the relative viability worked out at 0.28 in the assay with MK-2206 + Tozasertib (first compound 0.01 µM); 0.244 with MK-2206 + Tozasertib (first compound 0.03162 µM); 0.261 in the assay with MK-2206 + Tozasertib (first compound 0.3162 µM); 0.252 in the assay with MK-2206 + Tozasertib (first compound 1 µM); 0.559 in the assay with Pictilisib + AZD7762 (first compound 0.02 µM); 0.537 with Pictilisib + AZD7762 (first compound 0.06325 µM). The relative viability with Pictilisib + AZD7762 (first compound 0.6325 µM) was found to be 0.357; in the assay with Pictilisib + AZD7762 (first compound 2 µM) it was 0.192.

For the cell line NCI-H2126, the relative viability with Pictilisib + Bortezomib (first compound 0.02 µM) amounted to 1.05; in the assay with Pictilisib + Bortezomib (first compound 0.06325 µM), 1.15; with Pictilisib + Bortezomib (first compound 0.6325 µM), 1.07; in the assay with Pictilisib + Bortezomib (first compound 2 µM), 0.923; with Pictilisib + Palbociclib (first compound 0.02 µM), 0.357; in the assay with Pictilisib + Palbociclib (first compound 0.06325 µM) it was 0.317. Besides, the relative viability amounted to 0.32 with Pictilisib + Palbociclib (first compound 0.6325 µM); 0.341 in the assay with Pictilisib + Palbociclib (first compound 2 µM); 0.847 with Pictilisib + Luminespib (first compound 0.02 µM); 0.852 in the assay with Pictilisib + Luminespib (first compound 0.06325 µM); 0.646 with Pictilisib + Luminespib (first compound 0.6325 µM); 0.421 with Pictilisib + Luminespib (first compound 2 µM). The relative viability in the assay with MK-2206 + Tozasertib (first compound 0.01 µM) was found to be 0.814; with MK-2206 + Tozasertib (first compound 0.03162 µM), 0.897; with MK-2206 + Tozasertib (first compound 0.3162 µM) it was 0.822; with MK-2206 + Tozasertib (first compound 1 µM), 0.775; in the assay with Pictilisib + AZD7762 (first compound 0.02 µM), 1.02; in the assay with Pictilisib + AZD7762 (first compound 0.06325 µM), 1.01. Besides, the relative viability came out at 0.956 in the assay with Pictilisib + AZD7762 (first compound 0.6325 µM) and 0.716 with Pictilisib + AZD7762 (first compound 2 µM).

With LOU-NH91, the relative viability with Pictilisib + Bortezomib (first compound 0.02 µM) is 0.456; with Pictilisib + Bortezomib (first compound 0.06325 µM), 0.455; with Pictilisib + Bortezomib (first compound 0.6325 µM), 0.502; in the assay with Pictilisib + Bortezomib (first compound 2 µM), 0.401; with Pictilisib + Palbociclib (first compound 0.02 µM), 0.524; with Pictilisib + Palbociclib (first compound 0.06325 µM), 0.546. In addition, the relative viability with Pictilisib + Palbociclib (first compound 0.6325 µM) stood at 0.563; with Pictilisib + Palbociclib (first compound 2 µM) it was 0.514; in the assay with Pictilisib + Luminespib (first compound 0.02 µM) it was 0.347; with Pictilisib + Luminespib (first compound 0.06325 µM), 0.338; with Pictilisib + Luminespib (first compound 0.6325 µM) it was 0.321; with Pictilisib + Luminespib (first compound 2 µM), 0.274. Also, the relative viability with MK-2206 + Tozasertib (first compound 0.01 µM) stood at 0.693; with MK-2206 + Tozasertib (first compound 0.03162 µM), 0.727; with MK-2206 + Tozasertib (first compound 0.3162 µM), 0.658; in the assay with MK-2206 + Tozasertib (first compound 1 µM), 0.645; with Pictilisib + AZD7762 (first compound 0.02 µM) it was 0.803; in the assay with Pictilisib + AZD7762 (first compound 0.06325 µM) it was 0.718. Further, the relative viability with Pictilisib + AZD7762 (first compound 0.6325 µM) was determined as 0.567; in the assay with Pictilisib + AZD7762 (first compound 2 µM), 0.495.

Consider NCI-H1651, for which the relative viability with Pictilisib + Bortezomib (first compound 0.02 µM) amounted to 0.948; in the assay with Pictilisib + Bortezomib (first compound 0.06325 µM), 0.939; with Pictilisib + Bortezomib (first compound 0.6325 µM), 0.911; with Pictilisib + Bortezomib (first compound 2 µM), 0.707; in the assay with Pictilisib + Palbociclib (first compound 0.02 µM), 0.518; with Pictilisib + Palbociclib (first compound 0.06325 µM) it was 0.499. The relative viability came to 0.496 with Pictilisib + Palbociclib (first compound 0.6325 µM); 0.378 in the assay with Pictilisib + Palbociclib (first compound 2 µM); 0.841 with Pictilisib + Luminespib (first compound 0.02 µM); 0.65 with Pictilisib + Luminespib (first compound 0.06325 µM); 0.889 with Pictilisib + Luminespib (first compound 0.6325 µM); 0.473 in the assay with Pictilisib + Luminespib (first compound 2 µM). Also, the relative viability was 0.623 with MK-2206 + Tozasertib (first compound 0.01 µM); 0.667 with MK-2206 + Tozasertib (first compound 0.03162 µM); 0.665 in the assay with MK-2206 + Tozasertib (first compound 0.3162 µM); 0.59 with MK-2206 + Tozasertib (first compound 1 µM); 0.445 with Pictilisib + AZD7762 (first compound 0.02 µM); 0.423 with Pictilisib + AZD7762 (first compound 0.06325 µM). Further, the relative viability worked out at 0.444 with Pictilisib + AZD7762 (first compound 0.6325 µM) and 0.263 with Pictilisib + AZD7762 (first compound 2 µM).

For EKVX, the relative viability is 1.13 with Pictilisib + Bortezomib (first compound 0.02 µM); 0.937 in the assay with Pictilisib + Bortezomib (first compound 0.06325 µM); 0.66 with Pictilisib + Bortezomib (first compound 0.6325 µM); 0.394 in the assay with Pictilisib + Bortezomib (first compound 2 µM); 0.378 in the assay with Pictilisib + Palbociclib (first compound 0.02 µM); 0.348 with Pictilisib + Palbociclib (first compound 0.06325 µM). Also, the relative viability worked out at 0.348 in the assay with Pictilisib + Palbociclib (first compound 0.6325 µM); 0.184 with Pictilisib + Palbociclib (first compound 2 µM); 0.875 with Pictilisib + Luminespib (first compound 0.02 µM); 0.942 with Pictilisib + Luminespib (first compound 0.06325 µM); 0.833 with Pictilisib + Luminespib (first compound 0.6325 µM); 0.408 with Pictilisib + Luminespib (first compound 2 µM). Moreover, the relative viability with MK-2206 + Tozasertib (first compound 0.01 µM) was 0.405; with MK-2206 + Tozasertib (first compound 0.03162 µM), 0.395; with MK-2206 + Tozasertib (first compound 0.3162 µM), 0.344; with MK-2206 + Tozasertib (first compound 1 µM), 0.329; in the assay with Pictilisib + AZD7762 (first compound 0.02 µM), 0.732; with Pictilisib + AZD7762 (first compound 0.06325 µM), 0.703. The values for the relative viability with Pictilisib + AZD7762 (first compound 0.6325 µM) and in the assay with Pictilisib + AZD7762 (first compound 2 µM) were 0.41 and 0.315, respectively.

Regarding NCI-H1993, the relative viability with Pictilisib + Bortezomib (first compound 0.02 µM) stood at 0.984; with Pictilisib + Bortezomib (first compound 0.06325 µM), 1.04; with Pictilisib + Bortezomib (first compound 0.6325 µM), 0.601; with Pictilisib + Bortezomib (first compound 2 µM), 0.448; with Pictilisib + Palbociclib (first compound 0.02 µM) it was 0.573; with Pictilisib + Palbociclib (first compound 0.06325 µM), 0.622. The relative viability with Pictilisib + Palbociclib (first compound 0.6325 µM) was found to be 0.497; with Pictilisib + Palbociclib (first compound 2 µM), 0.37; with Pictilisib + Luminespib (first compound 0.02 µM), 0.73; in the assay with Pictilisib + Luminespib (first compound 0.06325 µM) it was 0.634; with Pictilisib + Luminespib (first compound 0.6325 µM), 0.55; in the assay with Pictilisib + Luminespib (first compound 2 µM), 0.523. Besides, the relative viability with MK-2206 + Tozasertib (first compound 0.01 µM) was 0.611; with MK-2206 + Tozasertib (first compound 0.03162 µM), 0.542; with MK-2206 + Tozasertib (first compound 0.3162 µM) it was 0.541; with MK-2206 + Tozasertib (first compound 1 µM), 0.525; with Pictilisib + AZD7762 (first compound 0.02 µM), 0.79; with Pictilisib + AZD7762 (first compound 0.06325 µM) it was 0.722. Moreover, the relative viability with Pictilisib + AZD7762 (first compound 0.6325 µM) worked out at 0.459; with Pictilisib + AZD7762 (first compound 2 µM), 0.442.

Consider NCI-H23, for which the relative viability worked out at 0.936 with Pictilisib + Bortezomib (first compound 0.02 µM); 1.12 with Pictilisib + Bortezomib (first compound 0.06325 µM); 0.768 with Pictilisib + Bortezomib (first compound 0.6325 µM); 0.445 with Pictilisib + Bortezomib (first compound 2 µM); 0.505 with Pictilisib + Palbociclib (first compound 0.02 µM); 0.439 in the assay with Pictilisib + Palbociclib (first compound 0.06325 µM). Moreover, the relative viability with Pictilisib + Palbociclib (first compound 0.6325 µM) is 0.351; in the assay with Pictilisib + Palbociclib (first compound 2 µM), 0.186; in the assay with Pictilisib + Luminespib (first compound 0.02 µM), 0.203; with Pictilisib + Luminespib (first compound 0.06325 µM), 0.219; in the assay with Pictilisib + Luminespib (first compound 0.6325 µM) it was 0.198; with Pictilisib + Luminespib (first compound 2 µM), 0.203. For the same cell line, the relative viability with MK-2206 + Tozasertib (first compound 0.01 µM) came out at 0.43; with MK-2206 + Tozasertib (first compound 0.03162 µM) it was 0.359; with MK-2206 + Tozasertib (first compound 0.3162 µM) it was 0.364; in the assay with MK-2206 + Tozasertib (first compound 1 µM) it was 0.281; in the assay with Pictilisib + AZD7762 (first compound 0.02 µM), 0.203; with Pictilisib + AZD7762 (first compound 0.06325 µM) it was 0.258. The relative viability with Pictilisib + AZD7762 (first compound 0.6325 µM) stood at 0.209; with Pictilisib + AZD7762 (first compound 2 µM), 0.155.
